Assay results reported in PubChem BioAssay (NCI).
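96-well plates; 48 h exposure; 5 concentrations. Endpoints by linear interpolation between flanking doses. Not reached: highest tested concentration assigned. GI50: concentration for 50% inhibition of growth. At the TGI there is no net growth.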

Tests used:
Assay in all cases: NCI anticancer screen, dose series, 48 h
786-0 renal = system: 786-0 renal
A549 NSCLC = system: A549 NSCLC
COLO 205 colon = system: COLO 205 colon
EKVX NSCLC = system: EKVX NSCLC
HCT-116 colon = system: HCT-116 colon
HCT-15 colon = system: HCT-15 colon
HT29 colon = system: HT29 colon
KM12 colon = system: KM12 colon
MCF7 breast = system: MCF7 breast
NCI-H460 lung = system: NCI-H460 lung
OVCAR-4 ovarian = system: OVCAR-4 ovarian
OVCAR-5 ovarian = system: OVCAR-5 ovarian
PC-3 prostate = system: PC-3 prostate
SK-MEL-2 melanoma = system: SK-MEL-2 melanoma
SK-OV-3 ovarian = system: SK-OV-3 ovarian
TK-10 renal = system: TK-10 renal
U251 CNS = system: U251 CNS
UACC-257 melanoma = system: UACC-257 melanoma
CAKI-1 renal = system: CAKI-1 renal

CCOC(=O)Cc1nnc2c(-c3ccccc3)nc3ccccc3n12
TGI (786-0 renal): > 100 µM | TGI (A549 NSCLC): > 100 µM | TGI (COLO 205 colon): > 100 µM | TGI (EKVX NSCLC): 79.8 µM | TGI (HCT-116 colon): > 100 µM | TGI (HCT-15 colon): > 100 µM | TGI (HT29 colon): > 100 µM | TGI (KM12 colon): > 100 µM | TGI (MCF7 breast): > 100 µM | TGI (NCI-H460 lung): > 100 µM | TGI (OVCAR-4 ovarian): > 100 µM | TGI (OVCAR-5 ovarian): > 100 µM | TGI (PC-3 prostate): > 100 µM | TGI (SK-MEL-2 melanoma): 95.2 µM | TGI (SK-OV-3 ovarian): 67.6 µM | TGI (TK-10 renal): > 100 µM | TGI (U251 CNS): 48.4 µM | TGI (UACC-257 melanoma): > 100 µM

O=C1CCCCC/C1=C\c1ccc(F)cc1
TGI (786-0 renal): > 100 µM | TGI (A549 NSCLC): > 100 µM | TGI (CAKI-1 renal): > 100 µM | TGI (COLO 205 colon): > 100 µM | TGI (EKVX NSCLC): > 100 µM | TGI (HCT-116 colon): > 100 µM | TGI (HCT-15 colon): > 100 µM | TGI (HT29 colon): > 100 µM | TGI (KM12 colon): > 100 µM | TGI (NCI-H460 lung): > 100 µM | TGI (OVCAR-4 ovarian): > 100 µM | TGI (OVCAR-5 ovarian): > 100 µM | TGI (PC-3 prostate): > 100 µM | TGI (SK-MEL-2 melanoma): > 100 µM | TGI (SK-OV-3 ovarian): > 100 µM | TGI (TK-10 renal): > 100 µM | TGI (U251 CNS): > 100 µM | TGI (UACC-257 melanoma): > 100 µM

C=CCCC(OCOCCOC)c1cc(C)c(O[Si](C)(C)C(C)(C)C)c(C)c1 (configuration not stated)
TGI (786-0 renal): 28.1 µM | TGI (A549 NSCLC): 38.5 µM | TGI (COLO 205 colon): 32.9 µM | TGI (EKVX NSCLC): 63.5 µM | TGI (HCT-15 colon): 31.4 µM | TGI (KM12 colon): 29.3 µM | TGI (NCI-H460 lung): 32.1 µM | TGI (OVCAR-5 ovarian): 32.4 µM | TGI (SK-MEL-2 melanoma): 30.8 µM | TGI (SK-OV-3 ovarian): 55.1 µM | TGI (TK-10 renal): 41.2 µM | TGI (U251 CNS): 27.3 µM | TGI (UACC-257 melanoma): 26.6 µM

COc1cccc(-c2cc(=O)c3cc(OC)c(OC)cc3[nH]2)c1
TGI (786-0 renal): > 100 µM | TGI (A549 NSCLC): > 100 µM | TGI (COLO 205 colon): > 100 µM | TGI (EKVX NSCLC): > 100 µM | GI50 (HCT-116 colon): 59.2 µM | TGI (HCT-116 colon): > 100 µM | TGI (HCT-15 colon): > 100 µM | TGI (HT29 colon): > 100 µM | TGI (KM12 colon): > 100 µM | TGI (NCI-H460 lung): > 100 µM | TGI (SK-OV-3 ovarian): > 100 µM | TGI (TK-10 renal): > 100 µM | TGI (U251 CNS): > 100 µM | TGI (UACC-257 melanoma): > 100 µM

OCC(CN1CCCCC1)(CN1CCCCC1)CN1CCCCC1
TGI (786-0 renal): > 100 µM | TGI (A549 NSCLC): > 100 µM | TGI (CAKI-1 renal): > 100 µM | TGI (COLO 205 colon): > 100 µM | TGI (EKVX NSCLC): > 100 µM | TGI (HCT-116 colon): > 100 µM | TGI (HCT-15 colon): > 100 µM | TGI (HT29 colon): > 100 µM | TGI (KM12 colon): > 100 µM | TGI (MCF7 breast): > 100 µM | TGI (NCI-H460 lung): > 100 µM | TGI (OVCAR-4 ovarian): > 100 µM | TGI (OVCAR-5 ovarian): > 100 µM | TGI (PC-3 prostate): > 100 µM | TGI (SK-OV-3 ovarian): > 100 µM | TGI (TK-10 renal): > 100 µM | TGI (U251 CNS): > 100 µM | TGI (UACC-257 melanoma): > 100 µM

O=S1(=O)OCCOS(=O)(=O)C1I
TGI (786-0 renal): > 100 µM | TGI (A549 NSCLC): > 100 µM | TGI (CAKI-1 renal): > 100 µM | TGI (COLO 205 colon): > 100 µM | TGI (EKVX NSCLC): > 100 µM | TGI (HCT-116 colon): > 100 µM | TGI (HT29 colon): > 100 µM | TGI (KM12 colon): > 100 µM | TGI (OVCAR-4 ovarian): > 100 µM | TGI (SK-MEL-2 melanoma): > 100 µM | TGI (SK-OV-3 ovarian): > 100 µM | TGI (TK-10 renal): > 100 µM | TGI (UACC-257 melanoma): > 100 µM

CCCCCCCC1(N=[N+]=[N-])C(=O)c2ccccc2N(C)C1=O (configuration not stated)
TGI (786-0 renal): > 100 µM | TGI (A549 NSCLC): > 100 µM | TGI (CAKI-1 renal): > 100 µM | TGI (COLO 205 colon): > 100 µM | TGI (EKVX NSCLC): > 100 µM | TGI (HCT-116 colon): > 100 µM | TGI (HCT-15 colon): > 100 µM | TGI (HT29 colon): > 100 µM | TGI (KM12 colon): > 100 µM | TGI (MCF7 breast): > 100 µM | TGI (NCI-H460 lung): > 100 µM | TGI (OVCAR-4 ovarian): > 100 µM | TGI (OVCAR-5 ovarian): > 100 µM | TGI (PC-3 prostate): > 100 µM | TGI (SK-OV-3 ovarian): > 100 µM | TGI (TK-10 renal): > 100 µM | TGI (U251 CNS): > 100 µM | TGI (UACC-257 melanoma): > 100 µM
